The record followed here is BindingDB's records for doi:10.1016/j.bmc.2007.03.073 (University of Upper Alsace, 2007).

The nature of this test: Inhibition of yeast alpha-D-glucosidase.

With `O=C1CNC[C@@H]1O`, the IC50 turned out to be 150 µM.

Molecule `O[C@H]1[C@H](O)CN[C@H]1O` had an inhibition constant Ki of 2 µM.

`OC[C@H]1NC(O)[C@H](O)[C@@H](O)[C@@H]1O` (stereo partly drawn) [NOJIRIMYCIN] displayed a Ki of 6.3 µM.
